# Literature values as cited in US20070043208A1, “Crystal structure of erythrocyte binding domain of EBA-175” (priority 2003, published 2007).
# Test system: P. falciparum
# Conditions: DNA plasmid prime and recombinant protein boost regimen
substance,measurement,value
RII: 73 kDa erythrocyte-binding domain (616 amino acid fragment) of P. falciparum EBA-175,monkeys protected from P. falciparum challenge,3 of 4
